Measured values reported in patent US10966426B2, “Herbicidal compositions comprising phenylpyrimidines” (BASF SE, priority 2016, dated 2021).
Several values for one entry are separate records, joined by “and”; a condition that tells them apart may be missing. Equal entries are not always repeated.

What was measured:
Format in all cases: in vivo
Echinocloa crus-galli = experiment: greenhouse post-emergence treatment, ECHCG
How it was run: (§1)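 Scale 0–100 damage rating (100 = complete destruction of above-ground parts, 0 = normal growth), read 2 to 4 weeks after post-emergence application of aqueous spray liquor to plants 3–15 cm tall.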

Avena fatua = experiment: greenhouse pre-emergence treatment, AVEFA
How it was run: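 Damage rated on 0 to 100 scale (0 = normal growth, 100 = no emergence or total above-ground kill) after 2-4 weeks at species-dependent 10-25° C or 20-35° C. Seeds sown per species in loamy sand, ~3.0% humus, treated right after sowing with aqueous spray of single actives or 10% emulsion-concentrate mixtures, then hooded; additive expectation by Colby.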

Papaver rhoeas = experiment: greenhouse post-emergence treatment, PAPRH
How it was run: as §1

Bromus sterilis = experiment: greenhouse post-emergence treatment, BROST
How it was run: (§2)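 Visual damage score 0–100 (0 = normal growth; 100 = no emergence/above-ground parts destroyed), read 2–4 wk post-treatment. Loamy sand, ~3.0% humus; seedlings grown in place or transplanted days before spraying; water as solvent; 10-25° C. or 20-35° C. per species. Combination expectations by Colby: E=X+Y−(X·Y/100).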

Polygonum convolvulus = experiment: greenhouse post-emergence treatment, POLCO
How it was run: as §1

Digitaria sanguinalis = experiment: greenhouse post-emergence treatment, DIGSA
How it was run: as §2

Matricaria chamomilla = experiment: greenhouse post-emergence treatment, MATCH
How it was run: as §1

[1] = 20 DAT, Ex. 26 solo 62.5 gai/ha

COC(=O)c1nc(C2CC2)ncc1-c1ccc(F)cc1Cl [Ex. 26]
% activity (Echinocloa crus-galli; 20 DAT, ECHCG, Ex. 26 solo 125 gai/ha): 65%
% activity (Echinocloa crus-galli; 20 DAT, ECHCG, Ex. 26 solo 250 gai/ha): 70%
% activity (Echinocloa crus-galli; 20 DAT, Ex. 26 solo 250 gai/ha): 80% and 60%
% activity (Echinocloa crus-galli; ECHCG, Ex. 26 solo 62.5 gai/ha, 20 DAT): 60%
% activity (Echinocloa crus-galli; ECHCG, Ex. 26 solo 125 gai/ha, 20 DAT): 65%
% activity (Echinocloa crus-galli; ECHCG, Ex. 26 solo 250 gai/ha, 20 DAT): 70% and 65%
% activity (Echinocloa crus-galli; Ex. 26 solo 62.5 gai/ha, 21 DAT, ECHCG): 50%
% activity (Echinocloa crus-galli; Ex. 26 solo 250 gai/ha, 20 DAT, ECHCG): 65%
% activity (Avena fatua; 20 DAT, AVEFA, Ex. 26 solo 125 gai/ha): 65% and 70%
% activity (Avena fatua; 20 DAT, Ex. 26 solo 125 gai/ha): 65%
% activity (Avena fatua; 21 DAT, AVEFA, Ex. 26 solo 250 gai/ha): 70%
% activity (Avena fatua; AVEFA, 20 DAT, solo Ex. 26 62.5 gai/ha): 55%
% activity (Avena fatua; AVEFA, 20 DAT, solo Ex. 26 62.5 gai/ha (Table X68)): 45%
% activity (Avena fatua; AVEFA, 20 DAT, solo Ex. 26 125 gai/ha): 75%
% activity (Avena fatua; AVEFA, 20 DAT, solo Ex. 26 125 gai/ha (Table X68)): 65%
% activity (Avena fatua; AVEFA, Ex. 26 solo 62.5 gai/ha, 20 DAT): 40%
% activity (Avena fatua; AVEFA, Ex. 26 solo 125 gai/ha, 20 DAT): 65%
% activity (Avena fatua; AVEFA, Ex. 26 solo 250 gai/ha, 20 DAT): 75%
% activity (Avena fatua; Ex. 26 solo, 31.25 gai/ha, 20 DAT, AVEFA): 25% and 20%
% activity (Avena fatua; Ex. 26 solo, 62.5 gai/ha, 20 DAT, AVEFA): 55%
% activity (Papaver rhoeas; [1]): 0%
% activity (Papaver rhoeas; 20 DAT, Ex. 26 solo 125 gai/ha): 0%
% activity (Papaver rhoeas; 20 DAT, Ex. 26 solo 250 gai/ha): 0%
% activity (Papaver rhoeas; 20 DAT, PAPRH, Ex. 26 solo 125 gai/ha): 0%
% activity (Papaver rhoeas; 20 DAT, PAPRH, Ex. 26 solo 250 gai/ha): 20%
% activity (Papaver rhoeas; 21 DAT, Ex. 26 solo 125 gai/ha): 0%
% activity (Papaver rhoeas; 21 DAT, Ex. 26 solo 250 gai/ha): 0%
% activity (Papaver rhoeas; Ex. 26 solo 62.5 gai/ha, 20 DAT, PAPRH (pyridate table)): 0%
% activity (Papaver rhoeas; Ex. 26 solo 62.5 gai/ha, 20 DAT, PAPRH (pyroxsulam table)): 0%
% activity (Papaver rhoeas; Ex. 26 solo 62.5 gai/ha, 21 DAT, PAPRH): 0%
% activity (Papaver rhoeas; Ex. 26 solo 125 gai/ha, 20 DAT, PAPRH (pyridate table)): 0%
% activity (Papaver rhoeas; Ex. 26 solo 125 gai/ha, 20 DAT, PAPRH (pyroxsulam table)): 0%
% activity (Papaver rhoeas; Ex. 26 solo 250 gai/ha, 20 DAT, PAPRH (pyridate table)): 45%
% activity (Papaver rhoeas; Ex. 26 solo 250 gai/ha, 20 DAT, PAPRH (pyroxsulam table)): 0%
% activity (Papaver rhoeas; Ex. 26 solo 250 gai/ha, 21 DAT, PAPRH): 0%
% activity (Papaver rhoeas; Ex. 26 solo, 125 gai/ha, 21 DAT, PAPRH): 0%
% activity (Papaver rhoeas; Ex. 26 solo, 250 gai/ha, 21 DAT, PAPRH): 15%
% activity (Papaver rhoeas; PAPRH, Ex. 26 solo 62.5 gai/ha, 20 DAT): 0%
% activity (Papaver rhoeas; PAPRH, Ex. 26 solo 125 gai/ha, 20 DAT): 0%
% activity (Bromus sterilis; 20 DAT, BROST, Ex. 26 solo 125 gai/ha): 60% and 35%
% activity (Bromus sterilis; 20 DAT, BROST, Ex. 26 solo 250 gai/ha): 65%
% activity (Bromus sterilis; [1]): 0%
% activity (Bromus sterilis; 20 DAT, Ex. 26 solo 250 gai/ha): 35% and 55% and 30%
% activity (Bromus sterilis; 21 DAT, Ex. 26 solo 125 gai/ha): 5%
% activity (Bromus sterilis; 21 DAT, Ex. 26 solo 250 gai/ha): 35%
% activity (Bromus sterilis; BROST, Ex. 26 solo 125 gai/ha, 20 DAT): 60% and 35% and 40%
% activity (Bromus sterilis; BROST, Ex. 26 solo 250 gai/ha, 20 DAT): 65%
% activity (Bromus sterilis; Ex. 26 solo 62.5 gai/ha, 20 DAT, BROST): 0%
% activity (Bromus sterilis; Ex. 26 solo 125 gai/ha, 21 DAT, BROST): 5%
% activity (Bromus sterilis; Ex. 26 solo 250 gai/ha, 21 DAT, BROST): 35%
% activity (Bromus sterilis; Ex. 26 solo, 125 gai/ha, 20 DAT, BROST): 5%
% activity (Bromus sterilis; Ex. 26 solo, 125 gai/ha, 21 DAT, BROST): 15%
% activity (Bromus sterilis; Ex. 26 solo, 250 gai/ha, 21 DAT, BROST): 25%
% activity (Polygonum convolvulus; 20 DAT, Ex. 26 solo 250 gai/ha): 30%
% activity (Polygonum convolvulus; 20 DAT, POLCO, Ex. 26 solo 62.5 gai/ha): 65%
% activity (Polygonum convolvulus; 20 DAT, POLCO, Ex. 26 solo 125 gai/ha): 85% and 80%
% activity (Polygonum convolvulus; 21 DAT, Ex. 26 solo 125 gai/ha): 0%
% activity (Polygonum convolvulus; Ex. 26 solo 62.5 gai/ha, 20 DAT, POLCO): 30%
% activity (Polygonum convolvulus; Ex. 26 solo 62.5 gai/ha, 21 DAT, POLCO): 0%
% activity (Polygonum convolvulus; Ex. 26 solo 125 gai/ha, 20 DAT, POLCO): 90%
% activity (Polygonum convolvulus; Ex. 26 solo 125 gai/ha, 21 DAT, POLCO): 0%
% activity (Polygonum convolvulus; Ex. 26 solo, 125 gai/ha, 20 DAT, POLCO): 5%
% activity (Polygonum convolvulus; Ex. 26 solo, 125 gai/ha, 21 DAT, POLCO): 35%
% activity (Polygonum convolvulus; Ex. 26 solo, 250 gai/ha, 20 DAT, POLCO): 30%
% activity (Polygonum convolvulus; Ex. 26 solo, 250 gai/ha, 21 DAT, POLCO): 85%
% activity (Polygonum convolvulus; POLCO, 21 DAT, solo Ex. 26 62.5 gai/ha): 0%
% activity (Polygonum convolvulus; POLCO, 21 DAT, solo Ex. 26 125 gai/ha): 35%
% activity (Polygonum convolvulus; POLCO, 21 DAT, solo Ex. 26 250 gai/ha): 85%
% activity (Digitaria sanguinalis; 20 DAT, DIGSA, Ex. 26 solo 125 gai/ha): 0%
% activity (Digitaria sanguinalis; [1]): 0%
% activity (Digitaria sanguinalis; 20 DAT, Ex. 26 solo 250 gai/ha): 20% and 30%
% activity (Digitaria sanguinalis; 21 DAT, Ex. 26 solo 125 gai/ha): 0%
% activity (Digitaria sanguinalis; DIGSA, 21 DAT, solo Ex. 26 62.5 gai/ha): 20%
% activity (Digitaria sanguinalis; DIGSA, 21 DAT, solo Ex. 26 125 gai/ha): 20%
% activity (Digitaria sanguinalis; DIGSA, 21 DAT, solo Ex. 26 250 gai/ha): 20%
% activity (Digitaria sanguinalis; DIGSA, Ex. 26 solo 125 gai/ha, 20 DAT): 0%
% activity (Digitaria sanguinalis; Ex. 26 solo 62.5 gai/ha, 20 DAT, DIGSA): 0%
% activity (Matricaria chamomilla; [1]): 0%
% activity (Matricaria chamomilla; 20 DAT, Ex. 26 solo 125 gai/ha): 0%
% activity (Matricaria chamomilla; 20 DAT, Ex. 26 solo 250 gai/ha): 0%
% activity (Matricaria chamomilla; 20 DAT, MATCH, Ex. 26 solo 62.5 gai/ha): 0%
% activity (Matricaria chamomilla; 20 DAT, MATCH, Ex. 26 solo 125 gai/ha): 0%
% activity (Matricaria chamomilla; 20 DAT, MATCH, Ex. 26 solo 250 gai/ha): 0%
% activity (Matricaria chamomilla; 21 DAT, Ex. 26 solo 250 gai/ha): 0%
